Measurements: publication PMC6556873, “Rapid Covalent-Probe Discovery by Electrophile-Fragment Screening” (Journal of the American Chemical Society, 2019)
Read-outs that look alike come from different tables or passages of the source.

Legend:
in vitro [1] = assay: in vitro; set-up: species or system HB2, CCD841; conditions: human, hek293 cells
PCAF = biological target: T1, PCAF (Homo sapiens, UniProt Q92831); set-up: Intact protein LC/MS covalent labelling, fragments in pools of five, 200 uM each, 4 °C; conditions: 24 h, 4 °C, pool of five; 200 µM; covalent
T1 construct: gene KAT2B

OTUB2 (OTUB2A) = biological target: T2, OTUB2 (OTUB2A) (Homo sapiens, UniProt Q96DC9); set-up: Intact protein LC/MS covalent labelling, fragments in pools of five, 200 uM each, 4 °C; conditions: 24 h, 4 °C, pool of five; 200 µM; covalent
T2 construct: full length residues 1-234, E. coli BL21(DE3)-R3, His tag removed by TEV, construct 27312 Da
T2 sequence (Q96DC9 1-234): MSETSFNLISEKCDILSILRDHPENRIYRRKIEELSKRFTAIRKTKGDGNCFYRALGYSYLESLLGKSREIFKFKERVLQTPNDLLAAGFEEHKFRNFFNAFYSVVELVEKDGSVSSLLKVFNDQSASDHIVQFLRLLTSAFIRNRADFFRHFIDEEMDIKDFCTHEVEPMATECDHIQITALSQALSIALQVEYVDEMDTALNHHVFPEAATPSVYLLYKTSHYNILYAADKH

NUDT7 = biological target: T3, NUDT7 (Homo sapiens, UniProt P0C024); set-up: Intact protein LC/MS covalent labelling, fragments in pools of five, 200 uM each, 4 °C; conditions: 24 h, 4 °C, pool of five; 200 µM; covalent
T3 construct: residues 14-235, E. coli, pNIC28-Bsa4, N-terminal His6 tag removed by TEV, construct 26672 Da

BSA = biological target: T4, BSA (Bos taurus, UniProt P02769); set-up: Intact protein LC/MS covalent labelling, fragments in pools of five, 200 uM each, 4 °C; conditions: 24 h, 4 °C, pool of five; 200 µM; covalent
T4 construct: gene ALB

in vitro [2] = assay: in vitro; set-up: species or system CCD841, HEK293; conditions: human, hb2 cells, read-out: HB-2 Cells Viability (%)
in vitro [3] = assay: in vitro; set-up: species or system HB2, HEK293; conditions: human, ccd841 cells

T3 sequence (P0C024 14-235): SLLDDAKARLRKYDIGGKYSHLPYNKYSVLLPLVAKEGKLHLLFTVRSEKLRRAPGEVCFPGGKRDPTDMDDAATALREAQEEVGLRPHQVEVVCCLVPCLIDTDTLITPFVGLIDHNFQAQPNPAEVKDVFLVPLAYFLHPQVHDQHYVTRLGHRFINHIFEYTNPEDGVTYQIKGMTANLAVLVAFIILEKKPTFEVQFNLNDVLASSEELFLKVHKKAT
T4 sequence (P02769 whole entry, the tested form may be a part): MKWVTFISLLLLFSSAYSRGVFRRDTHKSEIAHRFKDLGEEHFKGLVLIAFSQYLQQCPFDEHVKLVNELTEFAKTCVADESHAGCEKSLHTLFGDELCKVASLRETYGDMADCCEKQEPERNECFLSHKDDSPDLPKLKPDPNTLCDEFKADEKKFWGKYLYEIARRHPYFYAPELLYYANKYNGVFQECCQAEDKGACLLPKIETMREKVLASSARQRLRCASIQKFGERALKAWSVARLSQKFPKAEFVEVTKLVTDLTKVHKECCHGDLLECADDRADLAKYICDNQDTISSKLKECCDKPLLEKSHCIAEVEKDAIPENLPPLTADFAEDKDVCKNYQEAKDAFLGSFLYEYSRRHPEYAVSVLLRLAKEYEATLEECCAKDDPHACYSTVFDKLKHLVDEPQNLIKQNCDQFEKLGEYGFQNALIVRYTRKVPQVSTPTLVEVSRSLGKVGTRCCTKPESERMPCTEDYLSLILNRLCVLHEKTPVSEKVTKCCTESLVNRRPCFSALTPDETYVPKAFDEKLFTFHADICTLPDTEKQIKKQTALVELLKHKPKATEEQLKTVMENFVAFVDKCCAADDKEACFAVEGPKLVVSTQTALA
T1 sequence (Q92831 whole entry, the tested form may be a part): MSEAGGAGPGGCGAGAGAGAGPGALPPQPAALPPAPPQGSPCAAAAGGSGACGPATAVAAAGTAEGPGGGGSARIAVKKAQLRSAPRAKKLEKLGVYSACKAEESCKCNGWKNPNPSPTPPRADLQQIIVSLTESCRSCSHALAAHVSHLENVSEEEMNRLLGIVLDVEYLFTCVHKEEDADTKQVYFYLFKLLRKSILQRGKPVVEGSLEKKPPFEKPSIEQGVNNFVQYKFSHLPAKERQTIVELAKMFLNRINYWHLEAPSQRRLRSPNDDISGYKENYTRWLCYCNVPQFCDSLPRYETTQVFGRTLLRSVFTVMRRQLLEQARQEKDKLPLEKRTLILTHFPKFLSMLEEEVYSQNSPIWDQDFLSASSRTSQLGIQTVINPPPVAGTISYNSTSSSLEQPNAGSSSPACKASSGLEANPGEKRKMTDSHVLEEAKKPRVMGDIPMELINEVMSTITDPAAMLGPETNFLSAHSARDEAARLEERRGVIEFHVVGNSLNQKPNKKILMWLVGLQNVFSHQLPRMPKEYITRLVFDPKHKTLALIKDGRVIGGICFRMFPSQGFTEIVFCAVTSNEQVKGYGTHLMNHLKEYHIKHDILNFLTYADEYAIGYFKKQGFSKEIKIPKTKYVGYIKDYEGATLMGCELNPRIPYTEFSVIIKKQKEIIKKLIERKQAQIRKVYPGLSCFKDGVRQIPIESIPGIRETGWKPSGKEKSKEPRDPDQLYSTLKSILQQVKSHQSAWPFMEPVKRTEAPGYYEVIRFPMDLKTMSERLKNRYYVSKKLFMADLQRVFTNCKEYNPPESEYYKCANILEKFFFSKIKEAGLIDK

Structure (SMILES) | viability at 48 h, 10 µM (in vitro [1]) [%] | PCAF (PCAF) | OTUB2 (OTUB2 (OTUB2A)) | NUDT7 (NUDT7) | BSA (BSA) | viability at 48 h, 10 µM (in vitro [2]) [%] | viability at 48 h, 10 µM (in vitro [3]) [%]
Cc1ccccc1C(=O)NC1CCN(C(=O)CCl)CC1 [PCM-0103013] | 58.4 | 0 | 0 | 0 | 0.1 | 84.4 | 76.5
CC(C)C(=O)NNC(=O)CCl [PCM-0103014] | 126 | 0 | 0.09 | 0 | 0 | 98.8 | 95.1
O=C(CCl)N1CCN(c2ccccc2[N+](=O)[O-])CC1 [PCM-0103016] | 13.4 | 0 | 0.09 | 0.27 | 0.16 | 8.7 | 61.4
Cc1ccc(CN(C)C(=O)CCl)cc1 [PCM-0103017] | 58.2 | 0 | 0 | 0.09 | 0 | 67.7 | 73.9
CC1CCC(N(C)C(=O)CCl)CC1 (stereo not drawn) [PCM-0103019] | 39.9 | 0 | 0 | 0 | 0 | 39.2 | 40.7
O=C(CCl)NCC1Cc2ccccc2O1 (stereo not drawn) [PCM-0103020] | 87.1 | 0 | 0 | 0 | 0 | 99.1 | 88.9
CC(C)(C)C(=O)NC(=O)CCl [PCM-0103021] | 98.9 | 0 | 0 | 0 | 0 | 105 | 116
O=C(CCl)N1CCN(c2ncc(Cl)cc2Cl)CC1 [PCM-0103022] | 13.4 | 0 | 0 | 0.22 | 0 | 3.6 | 36.4
O=C(CCl)N1CCc2sccc2C1c1ccccc1 (stereo not drawn) [PCM-0103024] | 1.9 | 0 | 0 | 0.69 | 0 | 4.6 | 3
C=CC(=O)N1CCC2(CCc3ccccc3O2)C1 (stereo not drawn) [PCM-0103025] | 103 | 0 | 0.2 | 0 | 0 | 101 | 90.8
CC1CCCCC1N(C)C(=O)CCl (stereo not drawn) [PCM-0103026] | 31.2 | 0 | 0 | 0.12 | 0 | 18.3 | 57
COC(=O)c1ccc(C)c(NC(=O)CCl)c1 [PCM-0103027] | 22.1 | 0 | 0 | 0.05 | 0 | 34.3 | 54.7
CC1CCc2c(sc(NC(=O)CCl)c2C(N)=O)C1 (stereo not drawn) [PCM-0103029] | 18.6 | 0 | 0 | 0.09 | 0 | 21 | 63.2
CC(NC(=O)CCl)c1ccc2c(c1)OCO2 (stereo not drawn) [PCM-0103030] | 78.2 | 0 | 0.28 | 0.12 | 0 | 89.2 | 102
Cc1ccc2nc(NC(=O)CCl)sc2c1 [PCM-0103031] | 79.2 | 0 | 0.18 | 0.88 | 0 | 70.6 | 74.9
Cl.O=C(CCl)N1CCN(c2cccc(Cl)c2)CC1 [PCM-0103032] | 58.5 | 0 | 0.21 | 0.22 | 0 | 12 | 71.1
N#Cc1cccc(NC(=O)CCl)c1 [PCM-0103033] | 7.4 | 0 | 0.23 | 0 | 0 | 6.3 | 19.1

Structure (SMILES) | viability at 48 h, 10 µM (in vitro [1]) [%] | PCAF (PCAF) | OTUB2 (OTUB2 (OTUB2A)) | NUDT7 (NUDT7) | BSA (BSA) | viability at 48 h, 10 µM (in vitro [2]) [%] | viability at 48 h, 10 µM (in vitro [3]) [%]
O=C(CCl)NC(=O)NCC(F)(F)F [PCM-0103037] | 95.7 | 0 | 0.3 | 0 | 0 | 89 | 78.2
O=C(CCl)N1CC=C(c2ccccc2)CC1 [PCM-0103038] | 89.2 | 0 | 0.09 | 0 | 0 | 90.9 | 86.8
C=CC(=O)Nc1cc(F)cc(F)c1 [PCM-0103039] | 67.1 | 0 | 0 | 0.06 | 0 | 86.7 | 93.3
O=C(CCl)Nc1ccc(F)cc1Cl [PCM-0103040] | 60.3 | 0 | 0 | 0 | 0 | 76.9 | 68.7
C=CC(=O)N1CCCC(c2ncc3n2CCCC3)C1 (stereo not drawn) [PCM-0103042] | 97.1 | 0 | 0 | 0 | 0.11 | 95.6 | 108
COc1ccc(C)cc1NC(=O)CCl [PCM-0103043] | 63.7 | 0 | 0.27 | 0.06 | 0 | 81.3 | 79.1
C=CC(=O)NCc1c2c(nn1C)CCCC2 [PCM-0103044] | 74.2 | 0 | 0.08 | 0 | 0 | 97.2 | 98.1
O=C(CCl)NC1CCOCC1 [PCM-0103045] | 110 | 0 | 0 | 0 | 0 | 100 | 77.7
CCC1c2ccsc2CCN1C(=O)CCl (stereo not drawn) [PCM-0103051] | 6 | 0 | 0 | 0.3 | 0 | 13.5 | 14
Cc1nc(-c2ccc(C)c(NC(=O)CCl)c2)n[nH]1 [PCM-0103052] | 39.1 | 0 | 0.09 | 0.12 | 0 | 57 | 43.4
C=CC(=O)NC1(C(=O)N2CCN(C)CC2)CCCC1 [PCM-0103054] | 110 | 0 | 0 | 0 | 0.08 | 99.9 | 109
Cc1cc(NC(=O)CCl)n(C(C)(C)C)n1 [PCM-0103057] | 58.6 | 0 | 0 | 0 | 0 | 76.3 | 61.7
C=CC(=O)NC1CCN(C(=O)NCC)C1 (stereo not drawn) [PCM-0103058] | 109 | 0 | 0 | 0 | 0 | 94.4 | 93.3
C=CC(=O)N1CC(Oc2ccc(C#N)cc2)C1 [PCM-0103059] | 73.3 | 0 | 0.07 | 0 | 0 | 98.1 | 90.8
O=C(CCl)NNC(=O)C1CCC1 [PCM-0103061] | 2.3 | 0 | 0.14 | 0.28 | 0 | 8.2 | 30.9
O=C(CCl)NC1CCSC1=O (stereo not drawn) [PCM-0103062] | 90.7 | 0 | 0 | 0 | 0 | 97.6 | 88.2
